In PMC3662788, “The Catalytic Roles of P185 and T188 and Substrate-Binding Loop Flexibility in 3α-Hydroxysteroid Dehydrogenase/Carbonyl Reductase from Comamonas testosteroni” (PLoS ONE, 2013):
Residue numbers refer to the chain shown, from its start. Names may count otherwise. “And” between values parts separate entries of the source, which are not always exact repeats. Equal values may be shown once.

Experiments:
[1] = target: T1, wild-type 3α-HSD/CR (Comamonas testosteroni, UniProt P80702); conditions: cited from earlier work
T1 sequence (P80702 1-257): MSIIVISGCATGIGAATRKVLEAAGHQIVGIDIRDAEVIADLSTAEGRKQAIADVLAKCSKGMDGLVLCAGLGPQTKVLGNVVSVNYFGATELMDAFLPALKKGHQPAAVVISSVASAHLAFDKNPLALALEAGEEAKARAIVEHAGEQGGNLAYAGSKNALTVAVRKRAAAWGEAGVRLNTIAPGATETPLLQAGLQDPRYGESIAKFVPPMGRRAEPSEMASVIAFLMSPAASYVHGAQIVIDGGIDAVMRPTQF

[2] = target: T1, wild-type 3α-HSD/CR
[3] = target: T1, wild-type 3α-HSD/CR; conditions: WT; pH 10.5; obtained from Table 1
Source text: (§1) All reactions were initiated by the addition of an enzyme.
(§2) The data were fitted to Equation 2.

[4] = target: T2, P185A mutant 3α-HSD/CR (Comamonas testosteroni, UniProt P80702, P185A); experiment: Steady-state kinetics and primary isotope effects, oxidation of androsterone with NAD^+
T2 sequence (P80702 1-257 P185A): T1 sequence (P80702 1-257) with P185A
Source text: as §1, §2

[5] = target: T3, T188A mutant 3α-HSD/CR (Comamonas testosteroni, UniProt P80702, T188A); experiment: biochemical; type: biochemical
T3 construct: His-tag (inferred from pET15b vector and Ni-NTA purification) (N); made in house; host or cells: Escherichia coli BL21(DE3)
T3 sequence (P80702 whole entry T188A): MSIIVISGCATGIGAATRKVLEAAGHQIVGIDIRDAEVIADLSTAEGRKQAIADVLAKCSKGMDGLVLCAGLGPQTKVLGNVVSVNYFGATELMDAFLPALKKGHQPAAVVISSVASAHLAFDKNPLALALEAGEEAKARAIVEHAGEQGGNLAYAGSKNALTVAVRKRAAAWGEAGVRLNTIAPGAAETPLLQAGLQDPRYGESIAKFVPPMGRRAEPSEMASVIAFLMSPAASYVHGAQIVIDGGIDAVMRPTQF
Source text: as §1, §2

[6] = target: T4, T188S mutant 3α-HSD/CR (Comamonas testosteroni, UniProt P80702, T188S); experiment: biochemical; type: biochemical
T4 construct: His-tag (inferred from pET15b vector and Ni-NTA purification) (N); made in house; host or cells: Escherichia coli BL21(DE3)
T4 sequence (P80702 whole entry T188S): as the sequence (P80702 whole entry T188A) above, with A188S counted along it
Source text: as §1, §2

[7] = substrate: NC(=O)c1ccc[n+]([C@@H]2O[C@H](COP(=O)([O-])OP(=O)(O)OC[C@H]3O[C@@H](n4cnc5c(N)ncnc54)[C@H](O)[C@@H]3O)[C@@H](O)[C@H]2O)c1; experiment: purified protein, by the assay type; conditions: other: P185A, 0.1 M Caps pH 10.5, 25°C
[8] = WT, labeled vs unlabeled androsterone, 1.7 mM NAD^+, pH 10.5
[9] = P185A, 0.1 M Caps pH 10.5, 25°C

## C[C@]12CC[C@@H](O)C[C@@H]1CC[C@@H]1[C@@H]2CC[C@]2(C)C(=O)CC[C@@H]12 [androsterone, Androsterone]
[1]; WT, 0.1 M Caps pH 10.5
  kcat: 100 ± 8 s⁻¹
[1]; [8]
  ^D(V/K b) (primary kinetic isotope effect on Vmax/Kandrosterone): 1.8 and 1.8±0.2
  ^DV (primary kinetic isotope effect on Vmax): 1
[1]; wild-type
  ^D2OVmax (solvent kinetic isotope effect): 2.1
[2]; calculated from kobs 309 s^−1 and ^D(Vmax/Kandrosterone) 1.8
  minimum rate constant for hydride transfer from undeuterated androsterone to NAD^+: ≥ 556 s⁻¹
[3]
  kcat/KiaKb (kcat/KiNADKandrosterone): 42 ×10^4 mM^−2s^−1
[4]; P185A vs wild-type, pH 10.5, Equation 5
  ΔΔG^‡ mut/wt (differential transition-state binding energy): 0.96 kcal/mol
[4]; [9]
  kcat: 916 ± 61 s⁻¹
[4]; P185A, pH 10.5
  increase of kcat/Kandrosterone relative to wild-type: 3 fold
[4]; P185A, pH 10.5, obtained from Table 1
  kcat/KiaKb (kcat/KiNADKandrosterone): 8.3×10^4 mM^−2s^−1
[5]; T188A vs wild-type, pH 10.5, Equation 5
  ΔΔG^‡ mut/wt (differential transition-state binding energy): 1.9 kcal/mol
[5]; T188A, 0.1 M Caps pH 10.5, 25°C
  kcat: 1200 ± 133 s⁻¹
[5]; T188A, pH 10.5, obtained from Table 1
  kcat/KiaKb (kcat/KiNADKandrosterone): 1.7×10^4 mM^−2s^−1
[5]; mutation of T188 (T188A), pH 10.5
  increase of Kandrosterone relative to wild-type: 14 fold
[6]; T188S vs wild-type, pH 10.5, Equation 5
  ΔΔG^‡ mut/wt (differential transition-state binding energy): 2.0 kcal/mol
[6]; T188S, 0.1 M Caps pH 10.5, 25°C
  kcat: 1414 ± 149 s⁻¹
[6]; T188S, pH 10.5, obtained from Table 1
  kcat/KiaKb (kcat/KiNADKandrosterone): 1.4×10^4 mM^−2s^−1

## [2H]C1(O)CCC2(C)C(CCC3C4CCC(=O)C4(C)CCC32)C1 (stereo not drawn) [deuterated androsterone, [3α-^2H]Androsterone]
[2]; 1 µM WT, 1 mM NAD^+, 17.5 µM deuterated androsterone, 0.1 M Caps pH 10.5, 25°C
  apparent rate constant (kobs) for the deuteride transfer: 309 s⁻¹

## NC(=O)c1ccc[n+]([C@@H]2O[C@H](COP(=O)([O-])OP(=O)(O)OC[C@H]3O[C@@H](n4cnc5c(N)ncnc54)[C@H](O)[C@@H]3O)[C@@H](O)[C@H]2O)c1 [NAD^+]
[1]; WT, 0.1 M Caps pH 10.5
  Ka (Michaelis constant of NAD^+): 121 ± 26 µM
[1]; read-out: Kia (inhibition constant of NAD^+), WT, 0.1 M Caps pH 10.5
  Ki: 60 ± 30 µM
[4]
  Ki: 1 ± 0.3 mM
[4]; P185A vs wild-type, pH 10.5, Equation 4
  ΔΔGbmut/wt (differential ground-state binding energy, enzyme-NAD^+ complex): 1.7 kcal/mol
[4]; [9]
  kcat/Ka (NAD^+): 4.7 ± 1.1 µM⁻¹ s⁻¹
[5]
  Ki: 1.4 ± 0.2 mM
[5]; T188A vs wild-type, pH 10.5, Equation 4
  ΔΔGbmut/wt (differential ground-state binding energy, enzyme-NAD^+ complex): 1.8 kcal/mol
[6]
  Ki: 1.6 ± 0.3 mM
[6]; T188S vs wild-type, pH 10.5, Equation 4
  ΔΔGbmut/wt (differential ground-state binding energy, enzyme-NAD^+ complex): 1.9 kcal/mol

B1: P185A mutant 3α-HSD/CR (Comamonas testosteroni; P185A) (protein)
chain: T1 sequence (P80702 1-257) with P185A
[7]
  Km: 195 ± 55 µM
